The source of these data is article PMC11864979, “First-in-class ultralong-target-residence-time p38α inhibitors as a mitosis-targeted therapy for colorectal cancer” (Nature Cancer, 2025).

One may read the viability as a read-out of living cells in per cent, often relative to untreated cells.

Several values for one entry are separate records, joined by “and”; a condition that tells them apart may be missing. Equal entries are not always repeated.

Data set [1] in a line: full blood analysis of mice treated for 4 days or 10 weeks (Sysmex KX-21N). Format: in vivo, mouse. The settings on record: for Hemoglobin / MCV / MCH / MCHC: individual animals; for Hemoglobin: ED Fig. 10a; for MCV: ED Fig. 10b; for MCH: ED Fig. 10c; for MCHC: ED Fig. 10d; for Hematocrit (%): mice. The source says: We conducted a daily treatment of wild-type mice with 2015 or carrier for either 4 days or 10 weeks and subsequently quantified leukocytes, platelets and erythrocytes. Furthermore, we determined the hematocrit and the hemoglobin concentration and calculated routinely used red blood cell indices (mean corpuscular volume (MCV), mean corpuscular hemoglobin (MCH) and mean corpuscular hemoglobin concentration (MCHC)). […] No mice were excluded during treatment studies. […] GFP imaging of tumors was performed using a Hamamatsu imaging system. For quantification of compounds in the murine plasma, 20 μl of tail-vein blood was diluted with 80 μl of heparin solution, before 200 μl of ice-cold acetonitrile with a defined internal standard was added. The samples were sonicated and centrifuged and the supernatant was subjected to liquid chromatography-mass spectrometry quantification. Full blood analyses were performed with the Sysmex KX-21N hematology analyzer.

Data set [2] has as its system SCC321 human colon organoids. Nature of the data set: cell viability in healthy human colon organoids SCC321. Format: cell-based. The note with it: for Cell viability (%): ED Fig. 10g, replicates. As for the experimental part: (§1) Primary tumor material was chopped, washed in ice-cold medium and transferred into basic medium (Supplementary Table 17), supplemented with 2.5 mg ml^−1 collagenase II (Thermo Fisher Scientific), 2.5 mg ml^−1 collagenase XI (Sigma-Aldrich), 1 mg ml^−1 Dispase II (Sigma-Aldrich), 100 µg ml^−1 DNase I and 10.5 µM Y-27632 dihydrochloride (Invitrogen). Tumor digestion was performed at 37 °C and stopped by adding medium containing 10% FBS. The mixture was centrifuged for 5 min at 300g. Red blood cells were removed with ACK lysing buffer (Thermo Fisher Scientific; 5 min at room temperature) and the pellet was resuspended in medium. Approximately 1,000 cells were resuspended and plated in 50 µl of Cultrex RGF BME, type 2 (R&D Systems). The ascites material was pelleted by centrifugation at 300g and washed three times with ice-cold PBS. Human CRC organoids were cultured in human CRC medium (Supplementary Table 17) at 37 °C and 7% CO2. Within the first week, the medium was supplemented with 10.5 µM Y-27632 dihydrochloride (Invitrogen). The human colon organoids (SCC311 and SCC321) were purchased from Sigma-Aldrich and cultured in human colon medium (Supplementary Table 17) at 37 °C and 7% CO2. They were derived from participants with the following sex and age: […].
(§2) For in vitro treatment studies, organoids were mechanically dissociated and digested using TrypLE supplemented with 100 µg ml^−1 DNaseI and 10.5 µM Y-27632 dihydrochloride (Invitrogen) at 37 °C. A total of 1,000–2,000 single cells were plated per well in white 96-well plates (Greiner) in culture medium containing 10% GFR Matrigel or Cultrex BME. The treatment with doxycycline (5 µg ml^−1), pharmacological inhibitors or corresponding volumes of DMSO was started 24 h after plating. Doxycycline was obtained from Sigma-Aldrich. […] Cell viability was measured by means of CellTiter-Glo 3D or CellTiter-Glo 2.0 reagent (Promega) according to the manufacturers’ instructions and the Infinite M Plex reader (Tecan, i-control version 3.9.1 software). Results were normalized to vehicle (DMSO) or to shNC. For cell-doubling assays, the cell number was quantified at the corresponding time points using Guava EasyCyte flow cytometer (Luminex, CytoSoft v5.2 software).

Assay in data set [3]: as above
Format: cell-based. The settings on record: male, human, replicates. As to the method: as §1, §2

Regarding `CNC(=O)c1ccc2c(c1)C(=O)c1ccc(Nc3ccc(F)c(NC(=O)C4CC4)c3)cc1CC2` [Compound 2015], the “blood cell fractions versus carrier (in words)” value in data set [1] (4 days or 10 weeks daily treatment) is “no relevant differences”. In addition, the Hemoglobin was 14.6 g/dL and 14.3 g/dL and 13.7 g/dL and 14.0 g/dL in data set [1] (mice treated 10w); 14.7 g/dL and 15.4 g/dL and 14.6 g/dL and 14.5 g/dL in data set [1] (mice treated 4d). Moreover, the MCV in data set [1] (mice treated 10w) was 52.0 fL and 52.3 fL and 51.4 fL and 51.7 fL; in data set [1] (mice treated 4d), 52.3 fL and 51.8 fL and 51.9 fL and 51.5 fL. The MCH in data set [1] (mice treated 10w) is 14.2 pg and 14.0 pg and 13.8 pg; in data set [1] (mice treated 4d) it was 14.5 pg and 14.4 pg and 13.7 pg. The MCHC in data set [1] (mice treated 10w) is 27.4 g/dL and 26.8 g/dL and 26.9 g/dL and 26.6 g/dL; in data set [1] (mice treated 4d), 27.7 g/dL and 26.4 g/dL and 26.6 g/dL. The “Hematocrit (%)” value in data set [1] (10w treatment) is 53.3% and 53.4% and 50.9% and 52.6%; in data set [1] (4d treatment) it was 53.1% and 55.5% and 55.2% and 54.6%. Moreover, the “Cell viability (%)” value in data set [2] (2015 0,5 µM, 5 µM) was 115.51% and 112.50%; in data set [2] (2015 0,25 µM, 25 µM), 100.29% and 98.19%; in data set [2] (2015 1 µM), 83.04% and 75.31%. For the same compound, the “response of healthy human colon culture (in words)” value in data set [2] (SCC321, 4 d) is reported as “only a very weak response”. The viability at 25 µM in data set [3] (healthy human colon organoids SCC321, 2015 0,25 µM, ED Fig. 10g) came out at 105%. The viability at 5 µM in data set [3] (healthy human colon organoids SCC321, 2015 0, ED Fig. 10g) came to 109%. For the same compound, the viability at 1 µM in data set [3] (healthy human colon organoids SCC321, 2015 1 µM, ED Fig. 10g) came to 86.9%.
